Laboratory results published in article PMC10525797, “Streptomyces rugosispiralis sp. nov., a Novel Actinobacterium Isolated from Peat Swamp Forest Soil That Produces Ansamycin Derivatives and Nocardamines” (Antibiotics, 2023).
≈ marks a conversion by molar mass, not a printed value.

What was measured:
[1] = system: HPV-18-positive HeLa cells; parameters: method as in PMID 28862674; settings: cervical cancer cell line; cited from earlier work
in vitro [2] = settings: African green monkey
Setosphaeria turcica = system: Setosphaeria turcica; parameters: method as in PMID 28862674; settings: plant pathogen; cited from earlier work
Syphacia oblevata = system: Syphacia oblevata; parameters: method as in PMID 5459626; settings: cited from earlier work
Bacillus cereus = experiment: Antibacterial resazurin microplate assay (REMA), anti-B. cereus; format: cell-based; settings: inactive = at the final concentration of 50 μg/mL
[3] = system: Plasmodium falciparum (K-1, multi-drug resistant strain); experiment: microbe, parasite or virus in culture; format: cell-based; settings: for Anti-P. falciparum IC50: K-1 multi-drug resistant strain, inactive = at the final concentration of 50 μg/mL; for IC50: Plasmodium falciparum, read-out: Anti-P. falciparum IC50
[4] = system: Mycobacterium tuberculosis strain H37Ra; experiment: microbe, parasite or virus in culture; format: cell-based; settings: for MIC: Mycobacterium tuberculosis, H37RA, read-out: Anti-M. tuberculosis MIC
Plasmodium berghei = system: Plasmodium berghei; parameters: method as in PMID 5459626; settings: cited from earlier work
in vitro [5] = settings: human
[6] = system: MCF-7 (human breast cancer, ATCC HTC-22); settings: MCF-7 cells; inactive = at the final concentration of 50 μg/mL
[7] = system: KB (oral human epidermoid carcinoma, ATCC CCL-17); settings: KB cells; inactive = at the final concentration of 50 μg/mL
[8] = system: human histiocytic lymphoma U-937 cell line; parameters: method as in PMID 11213294; settings: cited from earlier work
oncostatin M signaling = settings: cell-based; cited from earlier work
Hsp90 ATPase = target: Hsp90 ATPase; parameters: method as in PMID 23124337; settings: isolated from Streptomyces hygroscopicus JCM4427; read-out: Hsp90 ATPase inhibition IC50; cited from earlier work
V. alginolyticus = system: V. alginolyticus; parameters: method as in PMID 21376551; settings: cited from earlier work
C. albicans = system: C. albicans; parameters: method as in PMID 21376551; settings: cited from earlier work
B. subtilis = system: B. subtilis; parameters: method as in PMID 21376551; settings: cited from earlier work
PRMI-7951 = system: PRMI-7951; parameters: method as in PMID 21376551; settings: cited from earlier work
[9] = parameters: method as in PMID 15844966; settings: final concentration of up to 200 μg/mL; cited from earlier work
SK-Mel-5 = system: SK-Mel-5; parameters: method as in PMID 21376551; settings: cited from earlier work
[10] = system: tested microorganisms used in this study; experiment: Antimicrobial activity test, tested microorganisms of this study; format: cell-based; settings: at a concentration of 50 μg/mL
T-47D = system: T-47D; parameters: method as in PMID 21376551; settings: cited from earlier work
E. faecium = system: E. faecium; parameters: method as in PMID 21376551; settings: cited from earlier work
[11] = system: NCI-H187 (human small-cell lung cancer, ATCC CRL-5804); settings: NCI-H187 cells; inactive = at the final concentration of 50 μg/mL
SK-Mel-28 = system: SK-Mel-28; parameters: method as in PMID 21376551; settings: cited from earlier work
[12] = system: Vero cells (African green monkey kidney fibroblasts, ATCC CCL-81); settings: inactive = at the final concentration of 50 μg/mL
in vitro [13] = settings: human; remark: listed apart in the source

Compound: COC1=C2C[C@@H](C)C[C@H](OC)[C@H](O)[C@@H](C)/C=C(\C)[C@H](OC(N)=O)[C@@H](OC)/C=C\C=C(/C)C(=O)NC(=CC1=O)C2=O [(1), geldanamycin]
- growth of HPV-18-positive HeLa cells [1]: inhibited the growth
- IC50 (in vitro [2]): 0.094 µg/mL (≈ 0.168 µM)
- antifungal activity against Setosphaeria turcica (Setosphaeria turcica): antifungal activity
- in vivo anti-parasitic activity against Syphacia oblevata (Syphacia oblevata): in vivo anti-parasitic activity
- Anti-B. cereus MIC (Bacillus cereus): inactive
- Anti-P. falciparum IC50 [3]: inactive
- Anti-M. tuberculosis MIC [4]: inactive
- in vivo anti-parasitic activity against Plasmodium berghei (Plasmodium berghei): not against Plasmodium berghei

Compound: CO[C@H]1/C=C\C=C(/C)C(=O)NC2=CC(=O)C(O)=C(C[C@@H](C)C[C@H](OC)[C@H](O)[C@@H](C)/C=C(\C)[C@@H]1OC(N)=O)C2=O [(2), 17-O-demethylgeldanamycin]
- IC50 (in vitro [5]): 4.25 µg/mL (≈ 7.78 µM)
- Cytotoxicity IC50 MCF-7 [6]: inactive
- IC50 (in vitro [2]): 6.43 µg/mL (≈ 11.8 µM)
- Anti-B. cereus MIC (Bacillus cereus): inactive
- Anti-P. falciparum IC50 [3]: inactive
- Anti-M. tuberculosis MIC [4]: inactive
- Cytotoxicity IC50 KB [7]: inactive

Compound: COc1c(O)cc2cc1C[C@@H](C)C[C@H](OC)[C@H](O)[C@@H](C)/C=C(\C)[C@H](OC(N)=O)[C@@H](OC)CC/C=C(\C)C(=O)N2 [(3), reblastatin]
- IC50 (in vitro [2]): 7.75 µg/mL (≈ 14.1 µM)
- Anti-B. cereus MIC (Bacillus cereus): inactive
- inhibition of proliferation of U-937 IC50 [8]: 0.43 µg/mL
- Anti-P. falciparum IC50 [3]: inactive
- Anti-M. tuberculosis MIC [4]: inactive
- IC50 (oncostatin M signaling): 160 nM
- IC50 (Hsp90 ATPase): 320 nM

Compound: CO[C@H]1C[C@H](C)Cc2cc(O)cc(c2)NC(=O)/C(C)=C/CC[C@H](OC)[C@@H](OC(N)=O)/C(C)=C/[C@H](C)[C@H]1O [(4), 17-demethoxyreblastatin]
- IC50 (in vitro [5]): 1.33 µg/mL (≈ 2.56 µM)
- Cytotoxicity IC50 MCF-7 [6]: inactive
- IC50 (in vitro [2]): 13.5 µg/mL (≈ 26 µM)
- Anti-B. cereus MIC (Bacillus cereus): inactive
- Anti-P. falciparum IC50 [3]: inactive
- Anti-M. tuberculosis MIC [4]: inactive
- Cytotoxicity IC50 KB [7]: inactive
- IC50 (Hsp90 ATPase): 1820 nM

Compound: O=C1CCC(=O)N(O)CCCCCNC(=O)CCC(=O)N(O)CCCCCNC(=O)CCC(=O)N(O)CCCCCN1 [(5), nocardamine]
- antimicrobial activity against V. alginolyticus (V. alginolyticus): no activity
- antimicrobial activity against C. albicans (C. albicans): no activity
- antimicrobial activity against B. subtilis (B. subtilis): weak antimicrobial activity
- Cytotoxicity IC50 MCF-7 [6]: inactive
- cell proliferation of PRMI-7951 (PRMI-7951): did not inhibit cell proliferation
- colony formation of PRMI-7951 (PRMI-7951): did inhibit their colony formation
- antimicrobial activity [9]: no antimicrobial activity
- cell proliferation of SK-Mel-5 (SK-Mel-5): did not inhibit cell proliferation
- colony formation of SK-Mel-5 (SK-Mel-5): did inhibit their colony formation
- antimicrobial activity against tested microorganisms [10]: inactive
- IC50 (in vitro [2]): 16.6 µg/mL (≈ 27.6 µM)
- cell proliferation of T-47D (T-47D): did not inhibit cell proliferation
- colony formation of T-47D (T-47D): did inhibit their colony formation
- Anti-B. cereus MIC (Bacillus cereus): inactive
- Anti-P. falciparum IC50 [3]: inactive
- Anti-M. tuberculosis MIC [4]: inactive
- antimicrobial activity against E. faecium (E. faecium): weak antimicrobial activity
- Cytotoxicity IC50 KB [7]: inactive
- Cytotoxicity IC50 NCI-H187 [11]: inactive
- cell proliferation of SK-Mel-28 (SK-Mel-28): did not inhibit cell proliferation
- colony formation of SK-Mel-28 (SK-Mel-28): did inhibit their colony formation

Compound: O=C1CCC(=O)NCCCCCN(O)C(=O)CCC(=O)NCCCCCN(O)C(=O)CCC(=O)NCCCCCN1 [(6), dehydroxynocardamine]
- IC50 (in vitro [5]): 14 µg/mL (≈ 23.9 µM)
- Cytotoxicity IC50 MCF-7 [6]: inactive
- antimicrobial activity [9]: no antimicrobial activity
- antimicrobial activity against tested microorganisms [10]: inactive
- Anti-B. cereus MIC (Bacillus cereus): inactive
- Anti-P. falciparum IC50 [3]: inactive
- Cytotoxicity IC50 Vero [12]: inactive
- Anti-M. tuberculosis MIC [4]: inactive
- Cytotoxicity IC50 KB [7]: inactive

Compound: C[C@H]1[C@@H](O)O[C@@H]2O[C@@]3(C)CC[C@H]4[C@H](C)CC[C@@H]1[C@@]24OO3 [Dihydroartemisinine, reference compound]
- IC50 [3]: 0.000702 µg/mL (≈ 0.00247 µM)

Compound: Cc1c2ccncc2c(C)c2c1[nH]c1ccccc12 [Ellipticine, reference compound]
- IC50 (in vitro [2]): 1.58 µg/mL (≈ 6.41 µM)

Compound: CC[C@@H](CO)NCCN[C@@H](CC)CO [Ethambutol, reference compound]
- MIC [4]: 0.938 µg/mL (≈ 4.59 µM)

Compound: NNC(=O)c1ccncc1 [Isoniazid, reference compound]
- MIC [4]: 0.047 µg/mL (≈ 0.343 µM)

Compound: OC(c1cc(C(F)(F)F)nc2c(C(F)(F)F)cccc12)C1CCCCN1 (stereo not drawn) [Mefloquine, reference compound]
- IC50 [3]: 0.024 µg/mL (≈ 0.0634 µM)

Compound: CC1COc2c(N3CCN(C)CC3)c(F)cc3c(=O)c(C(=O)O)cn1c23 (stereo not drawn) [Ofloxacin, reference compound]
- MIC [4]: 0.391 µg/mL (≈ 1.08 µM)

Compound: CO[C@H]1/C=C/O[C@@]2(C)Oc3c(C)c(O)c4c(O)c(c(/C=N/N5CCN(C)CC5)c(O)c4c3C2=O)NC(=O)/C(C)=C\C=C\[C@H](C)[C@H](O)[C@@H](C)[C@@H](O)[C@@H](C)[C@H](OC(C)=O)[C@@H]1C [Rifampicin, reference compound]
- MIC [4]: 0.013 µg/mL (≈ 0.0158 µM)

Compound: CC/C(=C(\c1ccccc1)c1ccc(OCCN(C)C)cc1)c1ccccc1 [Tamoxifen, reference compound]
- IC50 (in vitro [13]): 6.96 µg/mL (≈ 18.7 µM)

Compound: CN[C@H](CC(C)C)C(=O)N[C@H]1C(=O)N[C@@H](CC(N)=O)C(=O)N[C@H]2C(=O)N[C@H]3C(=O)N[C@H](C(=O)N[C@H](C(=O)O)c4cc(O)cc(O)c4-c4cc3ccc4O)[C@H](O)c3ccc(c(Cl)c3)Oc3cc2cc(c3O[C@@H]2O[C@H](CO)[C@@H](O)[C@H](O)[C@H]2O[C@H]2C[C@](C)(N)[C@H](O)[C@H](C)O2)Oc2ccc(cc2Cl)[C@H]1O [Vancomycin, reference compound]
- MIC (Bacillus cereus; Bacillus cereus): 2 µg/mL (≈ 1.38 µM)
